Work on CC(=O)O[C@]1(C(C)=O)CC[C@H]2[C@@H]3C[C@H](C)C4=CC(=O)CC[C@]4(C)[C@H]3CC[C@@]21C [(6alpha)-6-Methyl-3,20-dioxopregn-4-en-17-yl acetate] yielded a melting point of 208 °C.
Work on C=C[C@H]1C[N@@]2CC[C@H]1C[C@@H]2[C@@H](O)c1ccnc2ccccc12 [(9S)-Cinchonan-9-ol] yielded a melting point of 265 °C.
CCCCCCCC/C=C\CCCCCCCCCCCC(N)=O [(13Z)-Docos-13-enamide] showed a melting point of 79 °C.
With CC12CCC3C(CCC4CC(CC(=O)O)=CCC43C)C1CCC2=O (stereo not given) [(17-oxoandrost-2-en-3-yl)acetic acid] the melting point was 177 °C.
C[C@]12CC[C@H]3[C@@H](CCC4=CC(=O)CC[C@@]43C)[C@@H]1CC[C@@H]2O [(17beta)-17-Hydroxyandrost-4-en-3-one] gave a melting point of 155 °C.
With CCCCCOc1ccc(/N=N/c2ccc(CCCC)cc2)cc1 [(E)-1-(4-butylphenyl)-2-[4-(pentyloxy)phenyl]diazene] the melting point was 42 °C.
With O=C(O)/C(=C/c1ccccc1[N+](=O)[O-])c1ccccc1F [(E)-2-(2-Fluorophenyl)-3-(2-nitrophenyl)propenoic acid] the melting point was 212 °C.
Compound O=C(O)/C(=C/c1ccccc1)c1ccc([N+](=O)[O-])cc1 [(E)-2-(4-nitrophenyl)-3-phenylpropenoic acid] has a melting point of 228 °C.
Cc1ccccc1/C=C(\C#N)c1nc2ccccc2s1 [(E)-2-Benzothiazol-2-yl-3-o-tolyl-acrylonitrile] gave a melting point of 149 °C.
Work on O=C(O)/C(=C/c1cccc([N+](=O)[O-])c1)c1ccccc1 [(E)-2-phenyl-3-(3-nitrophenyl)propenoic acid] yielded a melting point of 185 °C.
O=C(O)/C(=C/c1ccc([N+](=O)[O-])cc1)c1ccccc1 [(E)-2-phenyl-3-(4-nitrophenyl)propenoic acid] gave a melting point of 216 °C.
Work on O=C(c1ccccc1)c1c(F)c(F)c(F)c(F)c1F [(Pentafluorophenyl)(phenyl)methanone] yielded a melting point of 37.5 °C.
With CC(C)(C)OC(=O)N1CCC[C@H](O)C1 [(S)-1-boc-3-hydroxypiperidine] the melting point was 37 °C.
O=C(O)CSCc1ccccc1 [(benzylthio)acetic acid] showed a melting point of 62 °C.
For C/C(=C\c1ccccc1)c1ccccc1 [(e)-alpha-methylstilbene], the melting point was 81 °C.
In the case of [2H]C([2H])=C(C(=O)OC([2H])([2H])[2H])C([2H])([2H])[2H] [(~2~H_3_)Methyl 2-(~2~H_3_)methyl(~2~H_2_)prop-2-enoate], the melting point is reported as -48 °C.
For [2H]c1c([2H])c([2H])c2c([2H])c([2H])c([2H])c([2H])c2c1[2H] [(~2~H_8_)Naphthalene], the melting point was 82 °C.
With [2H]c1c([2H])c2c([2H])c([2H])c3c([2H])c([2H])c([2H])c4c([2H])c([2H])c(c1[2H])c2c34 [(~2~H_10_)Pyrene] the melting point was 156 °C.
Work on [2H]c1c([2H])c([2H])c(-c2c([2H])c([2H])c(-c3c([2H])c([2H])c([2H])c([2H])c3[2H])c([2H])c2[2H])c([2H])c1[2H] [(~2~H_14_)-1,1':4',1''-Terphenyl] yielded a melting point of 213 °C.
CCCC(=O)Nc1ccc(OCC(O)CNC(C)C)c(C(C)=O)c1 (stereo not given) [Acebutolol] showed a melting point of 121 °C.
For CC=O [Acetaldehyde], the melting point was -124 °C.
For CC(=O)Nc1ccc(O)cc1 [Acetaminophen], the melting point was 170 °C.
CC(=O)Nc1ccccc1 [Acetanilide] showed a melting point of 114 °C.
CC(=O)OC(C)=O [Acetic anhydride] showed a melting point of -73 °C.
CC(=O)Oc1ccccc1C(=O)O [Acetylsalicylic acid] showed a melting point of 135 °C.
CC1(C)C=C(C(=O)O)C1 [Acid 9 (No name)] showed a melting point of 70 °C.
In the case of C=CC=O [Acrylaldehyde], the melting point is reported as -87 °C.
Compound Oc1ccc(OCc2ccccc2)cc1 [Agerite] has a melting point of 120 °C.
CC(N)C(=O)O (stereo not given) [Alanine] gave a melting point of 264 °C.
For C[C@]12CCC(=O)C=C1CC[C@@H]1[C@@H]2[C@@H](O)C[C@]2(C=O)[C@@H](C(=O)CO)CC[C@@H]12 [Aldosterone], the melting point was 166 °C.
